Results reported in patent US5017703A, “Indolylpiperidine compounds, processes for the preparation thereof and pharmaceutical composition comprising the same” (Fujisawa Pharmaceutical Company, Ltd., priority 1988, dated 1991).
Converted amounts (≈) assume the structure as drawn.

test system: anaphylactic asthma in guinea pigs; experiment: Antagonistic action on anaphylactic asthma in guinea pigs; assay type: in vivo, Male Hartley-strain guinea pigs; conditions: Cavia porcellus; oral, 30 min before 5% egg-white albumin aerosol; passively sensitized guinea pigs, 5 per group; survival for not less than 2 hours; read-out: Prophylactic Effect ED50
Experimental: Antagonistic action on anaphylactic asthma in guinea pigs.
Male Hartley-strain guinea pigs weighing 305-400g were used. These animals were sensitized by intravenous injection of 0.5 ml/animal of rabbit antiserum to egg-white albumin (PCA antibody titer 4,000). After 24 hours, the animals were housed individually in 5.3-liter plastic chambers. Using a commercial sprayer, a 5% egg-white albumin solution was sprayed in the form of an aerosol into each chamber at a rate of 0.16 ml/min for 2 minutes. Thirty minutes prior to the spraying of the egg-white albumin solution, the test compound was administered orally in varied concentrations. Each dosed group consisted of 5 animals. The prophylactic effect to anaphylaxis was expressed in terms of the ED50 value determined on the basis of the number of guinea pigs which had survived for not less than 2 hours after antigen spraying for each administration concentration of the test compound.

Question: Which ED50 does the source give for COc1cc(/C=C/C=C/C(=O)NCCCCN2CCC(c3c[nH]c4ccccc34)CC2)ccc1O [Compound A, 1-[4-{5-(4-Hydroxy-3-methoxyphenyl)-(2E, 4E)-2,4-pentadienoylamino}butyl]-4-(3-indolyl)-piperidine] here?
Answer: 0.5 mg/kg

Question: With COc1cc(/C=C/C=C/C(=O)NCCN2CCC(c3c[nH]c4ccccc34)CC2)cc(OC)c1O [Compound C, 1-[2-{5-(4-Hydroxy-3,5-dimethoxyphenyl)-(2E, 4E)-2,4-pentadienoylamino}ethyl]-4-(3-indolyl)piperidine] as the compound, how does the ED50 read?
Answer: 0.5 mg/kg

test system: SRS-A synthesis or release from peritoneal exudate cells; experiment: Anti-SRS-A activity (SRS-A synthesis or release from peritoneal exudate cells); assay type: cell-based, SD rats; conditions: rat peritoneal exudate cells, Ca++-ionophore A23187 1 μg/ml, indomethacin 10 μg/ml; SRS-A determined by contractility of isolated guinea pig ileum; read-out: Inhibitory Concentration IC50
Experimental: Peritoneal exudate cells were collected from glycogen-injected SD rats and adjusted to 1×10^7 cells/ml with Tyrode's solution. One milliliter of the cell suspension was incubated with indomethacin (10 μg/ml) and each varied concentration of the test compound for 10 minutes and, then, further incubated with Ca^++ -ionophore (A23187, 1 μg/ml) for 10 minutes. The supernatant was collected by centrifugation and the SRS-A (slow-reacting substance of anaphylaxis) activity was determined in terms of contractility of the isolated guinea pig ileum in the presence of mepyramine, atropine and methysergide.
The results were expressed in terms of the 50% inhibitory concentration to SRS-A synthesis or release from peritoneal exudate cells.

Question: How did the IC50 turn out when COc1cc(/C=C/C=C/C(=O)NCCN2CCC(c3c[nH]c4ccccc34)CC2)ccc1O [Compound B, 1-[2-{5-(4-Hydroxy-3-methoxyphenyl)-(2E, 4E)-2,4-pentadienoylamino}ethyl]-4-(3-indolyl)piperidine] was run?
Answer: 0.91 µg/mL (≈ 2.04 µM)

Question: COc1cc(/C=C/C=C/C(=O)NCCN2CCC(c3c[nH]c4ccccc34)CC2)cc(OC)c1O [Compound C, 1-[2-{5-(4-Hydroxy-3,5-dimethoxyphenyl)-(2E, 4E)-2,4-pentadienoylamino}ethyl]-4-(3-indolyl)piperidine] was tested. Which IC50 did it give?
Answer: 0.68 µg/mL (≈ 1.43 µM)

Question: How did the IC50 turn out when COc1cc(/C=C/C=C/C(=O)NCCN2CCC(c3c[nH]c4ccccc34)CC2)ccc1OC(C)=O [Compound D, 1-[2-{5-(4-Acetoxy-3-methoxyphenyl)-(2E, 4E)-2,4-pentadienoylamino}ethy]-4-(3-indolyl)piperidine] was run?
Answer: 0.6 µg/mL (≈ 1.23 µM)

Question: Which IC50 does the source give for COc1cc(/C=C/C=C/C(=O)NCCN2CCC(c3c[nH]c4ccccc34)CC2)cc(OC)c1OC(C)=O [Compound E, 1-[2-{5-(4-Acetoxy-3,5-dimethoxyphenyl)-(2E, 4E)-2,4-pentadienoylamino}ethyl]-4-(3-indolyl)piperidine] here?
Answer: 0.23 µg/mL (≈ 0.444 µM)

Question: O=C(/C=C/C=C/c1cc(Cl)c(O)c(Cl)c1)NCCN1CCC(c2c[nH]c3ccccc23)CC1 [Compound F, 1-[2-{5-(3,5-Dichloro-4-hydroxyphenyl)-(2E, 4E)-2,4-pentadienoylamino}ethyl]-4-(3-indolyl)piperidine] was tested. Which IC50 did it give?
Answer: 0.65 µg/mL (≈ 1.34 µM)
